The structures appear in SMILES notation.

One data set deals with HCoV-229E. Put plainly: microbe, parasite or virus in culture. The note with it: Human coronavirus 229E, MRC5, 120 h, read-out: HCoV-229E/MRC5 EC50. Format: cell-based.
A short description of data set [1]: in vitro. To be noted: human, hepg2 cells.
Data set [2] is described as follows: in vitro. The note with it: human, hela-ace2 cells.
For the next data set, the system named is RSV A2. Description: microbe, parasite or virus in culture. The format is cell-based. To be noted: human respiratory syncytial virus, HEp-2, 72 h, read-out: RSV A2 / Hep2 EC50.
A further data set deals with HCMV. Put plainly: HCMV/HFF antiviral assay. The note with it: Human betaherpesvirus 5, HFF. Format: cell-based.
The next data set deals with CHIKV. Description: microbe, parasite or virus in culture. The format is cell-based, CHIKV strain 181/25. To be noted: Chikungunya virus, HepG2, 24 h, read-out: CHIKV / HepG2 EC50.
In the next data set the test system is HRV 16. Put plainly: microbe, parasite or virus in culture. The format is cell-based, Human Rhinovirus 16 strain 11757. To be noted: Rhinovirus A, H1-HeLa, 48 h, read-out: HRV / H1 HeLa A16 EC50.
Data set [3] can be described thus: in vitro. The note with it: human, mrc5 cells.
Data set [4] is described as follows: in vitro. The note with it: human, hct-8 cells.
The next data set relates to DENV-2. Description: microbe, parasite or virus in culture. To be noted: Dengue virus, DENV2, HepG2, 24 h, read-out: DENV-2 / HepG2 EC50. The format is cell-based, DENV-2 16681.
The next data set has as its system YFV. Put plainly: microbe, parasite or virus in culture. Format: cell-based, YFV strain 17D. To be noted: Yellow fever virus, HepG2, 24 h, read-out: YFV / HepG2 EC50.
Data set [5] is described as follows: in vitro. To be noted: human, hep2 cells.
The next data set has as its system HRV 14. Description: microbe, parasite or virus in culture. The format is cell-based, Human Rhinovirus 14 strain 1059. The note with it: Rhinovirus B, H1-HeLa, 48 h, read-out: HRV / H1 HeLa B 14 EC50.
The test system of the next data set is SARS-CoV-2. Description: microbe, parasite or virus in culture. The note with it: Severe acute respiratory syndrome coronavirus 2, HeLa-ACE2, 24 h, read-out: SARS-CoV-2 / HeLa-ACE2 EC50. The format is cell-based, SARS-CoV-2 strain USA-WA1/2020.
Data set [6] in a line: in vitro. To be noted: human, h1 hela cells.
The next data set is described as follows: Cytotoxicity, HFF. The format is cell-based. The note with it: human, hff cells; read-out: HCMV/HFF CC50.
The next data set has as its system HCoV-OC43. Put plainly: microbe, parasite or virus in culture. The format is cell-based, Human Coronavirus. To be noted: Betacoronavirus 1, OC43, HCT-8, 48 h, read-out: HCoV-OC43/HCT-8 EC50.
For another data set, the system named is ZIKV. Put plainly: microbe, parasite or virus in culture. The format is cell-based, ZIKV MR766. To be noted: Zika virus, HepG2, 24 h, read-out: ZIKV / HepG2 EC50.

For the molecule `OC[C@@]1(F)O[C@@H](n2ccc3c(Cl)ncnc32)[C@H](O)[C@@H]1O` [Example 4, (2S,3S,4R,5R)-5-(4-chloro-7H-pyrrolo[2,3-d]pyrimidin-7-yl)-2-fluoro-2-(hydroxymethyl)tetrahydrofuran-3,4-diol], the EC50 with HCoV-229E was over 10 µM; with RSV A2, 0.1 to 1 µM; in the data set with HCMV, over 10 µM; in the data set on CHIKV, 0.1 to 1 µM; in the data set with HRV 16, 0.1 to 1 µM; with DENV-2, under 0.1 µM. The EC50 with YFV is under 0.1 µM; with HRV 14 it was 0.1 to 1 µM; in the data set on SARS-CoV-2 it was 1 to 10 µM; with HCoV-OC43 it was 0.1 to 1 µM; in the data set on ZIKV it was 0.1 to 1 µM. Further, in the data set “in vitro [1]”, the CC50 at 72 h was 10 to 99 µM. The molecule further yielded a CC50 at 24 h in the data set “in vitro [2]” of 10 to 99 µM. Also, the CC50 in the data set “in vitro [3]” is over 99 µM; in “in vitro [4]” it was 10 to 99 µM; in “in vitro [5]”, 10 to 99 µM; in “in vitro [6]”, 10 to 99 µM; in the data set “Cytotoxicity, HFF” it was 10 to 99 µM.
Turning to `OC[C@@]1(F)O[C@@H](n2ccc3c(F)ncnc32)[C@H](O)[C@@H]1O` [Example 13, (2S,3S,4R,5R)-2-fluoro-5-(4-fluoro-7H-pyrrolo[2,3-d]pyrimidin-7-yl)-2-(hydroxymethyl)tetrahydrofuran-3,4-diol], the EC50 in the data set on HCoV-229E is over 10 µM; with RSV A2, 0.1 to 1 µM; with HCMV, over 10 µM; in the data set on CHIKV it was 0.1 to 1 µM; in the data set on HRV 16, 0.1 to 1 µM; in the data set with DENV-2, under 0.1 µM. Further, the EC50 in the data set on HRV 14 lay within 1 to 10 µM; with SARS-CoV-2, 0.1 to 1 µM; in the data set on HCoV-OC43, 1 to 10 µM. In “in vitro [1]”, this molecule returned a CC50 at 72 h of 1 to 10 µM. This molecule gave a CC50 at 24 h in “in vitro [2]” of 10 to 99 µM. The CC50 was over 99 µM in the data set “in vitro [3]”; 10 to 99 µM in the data set “in vitro [4]”; 10 to 99 µM in the data set “in vitro [5]”; 10 to 99 µM in the data set “in vitro [6]”; 10 to 99 µM in the data set “Cytotoxicity, HFF”.
In the case of `NC(=O)c1cn([C@@H]2O[C@](F)(CO)[C@@H](O)[C@H]2O)c2ncnc(N)c12` [Example 14, 4-amino-7-((2R,3R,4S,5S)-5-fluoro-3,4-dihydroxy-5-(hydroxymethyl)tetrahydrofuran-2-yl)-7H-pyrrolo[2,3-d]pyrimidine-5-carboxamide], the EC50 was over 10 µM in the data set with HCoV-229E; under 0.1 µM with RSV A2; 0.1 to 1 µM in the data set on HCMV; over 10 µM in the data set with HRV 16; under 0.1 µM in the data set on DENV-2; over 10 µM in the data set on HRV 14. Besides, the EC50 in the data set on SARS-CoV-2 and with HCoV-OC43 was 0.1 to 1 µM each time. The molecule further gave a CC50 at 72 h in “in vitro [1]” of under 1 µM. Besides, the CC50 at 24 h in the data set “in vitro [2]” was under 1 µM. For the same molecule, the CC50 in “in vitro [3]” was 1 to 10 µM; in the data set “in vitro [4]”, 1 to 10 µM; in the data set “in vitro [5]”, 1 to 10 µM; in “in vitro [6]”, 1 to 10 µM; in the data set “Cytotoxicity, HFF”, 1 to 10 µM.
For the molecule `Nc1ncnc2c1c(F)cn2[C@@H]1O[C@](F)(CO)[C@@H](O)[C@H]1O` [Example 15, (2S,3S,4R,5R)-5-(4-amino-5-fluoro-7H-pyrrolo[2,3-d]pyrimidin-7-yl)-2-fluoro-2-(hydroxymethyl)tetrahydrofuran-3,4-diol], the EC50 was 0.1 to 1 µM with HCoV-229E; over 10 µM in the data set on RSV A2; 1 to 10 µM with HCMV; under 0.1 µM in the data set on HRV 16; under 0.1 µM with DENV-2; over 10 µM in the data set on HRV 14. In addition, the EC50 in the data set with SARS-CoV-2 and in the data set on HCoV-OC43 was under 0.1 µM in each case. The molecule also displayed a CC50 at 72 h in “in vitro [1]” of under 1 µM. The same molecule showed a CC50 at 24 h in the data set “in vitro [2]” of under 1 µM. Besides, the CC50 in “in vitro [3]” was 1 to 10 µM; in the data set “in vitro [4]”, under 1 µM; in the data set “in vitro [5]”, 1 to 10 µM; in “in vitro [6]” it was under 1 µM; in “Cytotoxicity, HFF” it was 1 to 10 µM.
Take `O=c1[nH]cnc2c1c(F)cn2[C@@H]1O[C@](F)(CO)[C@@H](O)[C@H]1O` [Example 21, 5-fluoro-7-((2R,3R,4S,5S)-5-fluoro-3,4-dihydroxy-5-(hydroxymethyl)tetrahydrofuran-2-yl)-3,7-dihydro-4H-pyrrolo[2,3-d]pyrimidin-4-one]: the EC50 in the data set with HCoV-229E, with RSV A2, with HRV 16, in the data set with DENV-2, in the data set on YFV and with HRV 14 was over 10 µM each time. Besides, the EC50 with SARS-CoV-2, in the data set on HCoV-OC43 and in the data set with ZIKV was over 10 µM each time. Moreover, the CC50 at 72 h in “in vitro [1]” was over 99 µM. The same molecule registered a CC50 at 24 h in “in vitro [2]” of over 99 µM. The CC50 in “in vitro [3]”, in “in vitro [4]”, in the data set “in vitro [5]” and in the data set “in vitro [6]” was over 99 µM each time.
Consider `NC(=O)c1cn([C@@H]2O[C@](F)(CO)[C@@H](O)[C@H]2O)c2ncncc12` [Example 24, 7-((2R,3R,4S,5S)-5-fluoro-3,4-dihydroxy-5-(hydroxymethyl)tetrahydrofuran-2-yl)-7H-pyrrolo[2,3-d]pyrimidine-5-carboxamide], for which the EC50 with HCoV-229E is over 10 µM; in the data set with RSV A2 it was 0.1 to 1 µM; with HCMV, over 10 µM; in the data set with HRV 16, over 10 µM; with DENV-2, under 0.1 µM; in the data set with YFV, 0.1 to 1 µM. Further, the EC50 in the data set with HRV 14 lay in the range of 1 to 10 µM; with SARS-CoV-2 it was 0.1 to 1 µM; in the data set with HCoV-OC43, 0.1 to 1 µM; with ZIKV, 0.1 to 1 µM. This molecule also returned a CC50 at 72 h in “in vitro [1]” of 1 to 10 µM. For the same molecule, the CC50 at 24 h in “in vitro [2]” was 1 to 10 µM. Moreover, the CC50 in the data set “in vitro [3]” is over 99 µM; in “in vitro [4]”, 10 to 99 µM; in “in vitro [5]” it was 10 to 99 µM; in “in vitro [6]”, 10 to 99 µM; in the data set “Cytotoxicity, HFF”, 10 to 99 µM.
For `OC[C@@]1(F)O[C@@H](n2cc(Br)c3cncnc32)[C@H](O)[C@@H]1O` [Example 25, (2S,3S,4R,5R)-5-(5-bromo-7H-pyrrolo[2,3-d]pyrimidin-7-yl)-2-fluoro-2-(hydroxymethyl)tetrahydrofuran-3,4-diol], the EC50 with HCoV-229E was over 10 µM; with RSV A2, 0.1 to 1 µM; in the data set on HCMV, 1 to 10 µM; in the data set on HRV 16, over 10 µM; with DENV-2, under 0.1 µM; with YFV, under 0.1 µM. Besides, the EC50 in the data set on HRV 14 is over 10 µM; in the data set on SARS-CoV-2, 0.1 to 1 µM; in the data set with HCoV-OC43, 0.1 to 1 µM; in the data set with ZIKV, under 0.1 µM. Also, the CC50 at 72 h in “in vitro [1]” was under 1 µM. In “in vitro [2]”, this molecule came in with a CC50 at 24 h of under 1 µM. Besides, the CC50 in the data set “in vitro [3]” was over 99 µM; in “in vitro [4]”, under 1 µM; in the data set “in vitro [5]” it was 10 to 99 µM; in “in vitro [6]” it was 1 to 10 µM; in “Cytotoxicity, HFF”, over 99 µM.
With `Nc1ncnc2c1c(Cl)cn2[C@@H]1O[C@](F)(CO)[C@@H](O)[C@H]1O` [Example 33, (2S,3S,4R,5R)-5-(4-amino-5-chloro-7H-pyrrolo[2,3-d]pyrimidin-7-yl)-2-fluoro-2-(hydroxymethyl)tetrahydrofuran-3,4-diol], the EC50 with HCoV-229E was over 10 µM; with RSV A2, under 0.1 µM; in the data set on HCMV, 0.1 to 1 µM; with HRV 16, over 10 µM; in the data set with DENV-2, under 0.1 µM; in the data set on HRV 14, over 10 µM. The EC50 was under 0.1 µM in the data set with SARS-CoV-2 and 0.1 to 1 µM in the data set with HCoV-OC43. This molecule returned a CC50 at 72 h in the data set “in vitro [1]” of under 1 µM. In addition, the CC50 at 24 h in “in vitro [2]” was in the range of 1 to 10 µM. For the same molecule, the CC50 in “in vitro [3]” is 10 to 99 µM; in the data set “in vitro [4]”, under 1 µM; in the data set “in vitro [5]”, 10 to 99 µM; in the data set “in vitro [6]”, 1 to 10 µM; in “Cytotoxicity, HFF” it was 10 to 99 µM.
